Consider three compounds from patent US11395816B2, “Corroles for treating human cytomegalovirus infections” (UNIVERSITE DE BOURGOGNE, priority 2017, dated 2022).

One data set deals with hCMV. The data set is described as follows: hCMV infection assay in ARPE-19 cells (infection level and DNA replication by high content microscopy). The class given is cell-based, human cytomegalovirus. The method, then:
ARPE-19 human retinal pigmented epithelium cells were used for hCMV infection assay.
Cells were grown in DMEM without phenol red (Sigma-Aldrich) 10% SVF, Pen-strep, 1× sodium pyruvate, 1× Glutamax.
(§1) hCMV infection was carried out on ARPE-19 cells seeded in 96 wells plate, in duplicate at one or two MOI (multiplicity of infection) and 7 concentrations of FNO2Cor, TPFCor, TpNO2Cor. • D0: MRC5/ARPE-19 cells seeded at 6 k per well in Corning Glass Bottom 96 well plates in 200 μL of DMEM without phenol red. • D1: cells were treated with FNO2Cor, TpNO2Cor, TPFCor (from 50 to 0.1 μM by two fold dilutions) in duplicate for the toxicity study. • D3: ARPE-19 cells were treated with Ganciclovir, FNO2Cor, TpNO2Cor, TPFCor (from 5 to 0.07 μM or from 10 to 0.15 μM by two fold dilutions) and were infected at different MOI in duplicate: MOI 10 or 2 for ARPE-19 cells. • D7: ARPE-19 cells at MOI 10 4 d post-infection were fixed with Formalin 10 min at room temperature. Cells were washed with 200 μL PBS and 100 μL PBS/Hoechst® 33342 ( 1/1000) per well. 96 well plates were kept at 4° C. in the dark until data acquisition Image acquisition and analysis for high content quantification was performed on a Thermo Cellomics Arrayscan™ VTI microscope using a modified compartmental analysis algorithm. • D13: ARPE19 cells at MOI 2 10 days post-infection were fixed and image acquisition and analysis were performed as previously described.
On 4 d and 10 d post-infection (2 post-infection times), data acquisition per virus and cell line was done by high content microscopy to calculate infection level and DNA replication according to compound concentration.
Compounds FNO2Cor, TPFCor, TpNO2Cor and anti-hCMV drug Ganciclovir were assessed at 8 different concentrations in ARPE-19 cell culture on 4 days post-infection (FIGS. 2A, 2B) or on 10 days post-infection (FIGS. 3A, 3B) to evaluate their activity for inhibiting hCMV infection and their capacity for inhibiting hCMV replication in ARPE-19 cells.

A further data set concerns ARPE-19 cells. Put plainly: Toxicity assessment (cytotoxicity) on ARPE-19 cells. The class given is cell-based, human. The following applies: for cytotoxicity (in words): ARPE-19 human retinal pigmented epithelium cells, FIG. 1 and Table I. The method, then: as §1
(§2) The toxicity of compounds FNO2Cor or TPFCor on ARPE-19 cells was evaluated after 6 days of treatment. 10 concentrations (50, 25, 12.5, 6.25, 3.1, 1.5, 0.75, 0.5, 0.25, 0.1 μM) of FNO2Cor and TPFCor were studied. The compound TpNO2Cor was used as positive control. Cell culture without treatment was used as negative control.
(§3) Cytotoxicity of compounds FNO2Cor, TPFCor and TpNO2Cor were assessed at different concentrations on ARPE-19 cells according to the method described on section 1.3. TpNO2Cor worked as positive reference.

Experiment in data set [1]: as above
The format is cell-based, human. The following applies: human; ARPE-19 cells, 6 days of treatment, 0.1-50 μM tested. The method, then: as §1, §2, §3

For data set [2] the following is noted: already known, Gros et al., 2015; cited from earlier work.
Setting [3] is: Human betaherpesvirus 5, ARPE-19, 96 h, read-out: IC50 ARPE (infection inhibition).
Where [4] appears, read: Human betaherpesvirus 5, ARPE-19, 96 h, read-out: IC50 ARPE (replication inhibition).
Setting [5] is: Human betaherpesvirus 5, ARPE-19, 240 h, read-out: IC50 ARPE (infection inhibition).
The mark [6] stands for this setting: Human betaherpesvirus 5, ARPE-19, 240 h, read-out: IC50 ARPE (replication inhibition).
[7] abbreviates: Table V, head prints 4 d PI, text says 10 d PI.

Where two headings read alike, the source gives them in different places.

With `O=[N+]([O-])c1ccc(F)c(-c2c3nc(c4ccc([nH]4)c(-c4cc([N+](=O)[O-])ccc4F)c4ccc([nH]4)c(-c4cc([N+](=O)[O-])ccc4F)c4ccc2[nH]4)C=C3)c1` [FNO2Cor, 5,10,15-Tris(2-fluoro-5-nitrophenyl)corrole], the “Selectivity index (infection inhibition)” value in the data set with hCMV (4 d PI, Table III) stood at 21.05; in the data set on hCMV (setting [7]), 39.94. Moreover, the “Selectivity index (replication inhibition)” value with hCMV (4 d PI, Table III) came out at 8.45; with hCMV (setting [7]) it was 4.24. Moreover, the IC50 – broadly, the concentration that gives 50% inhibition – in the data set on hCMV (setting [3]) was determined as 2.38 µM; in the data set on hCMV (setting [4]) it was 5.92 µM; in the data set on hCMV (setting [5]), 1.25 µM; with hCMV (setting [6]), 11.8 µM. Further, the “cytotoxicity (in words)” value in the data set with ARPE-19 cells is listed as “safe”. For the same compound, the CC50 (in general, the concentration giving 50% cytotoxicity) at 6 days in data set [1] was determined as 50 µM.

As for `Fc1c(F)c(F)c(-c2c3nc(c4ccc([nH]4)c(-c4c(F)c(F)c(F)c(F)c4F)c4ccc([nH]4)c(-c4c(F)c(F)c(F)c(F)c4F)c4ccc2[nH]4)C=C3)c(F)c1F` [TPFCor, 5,10,15-Tris(pentafluorophenyl)corrole], the “Selectivity index (infection inhibition)” value in the data set on hCMV (4 d PI, Table III) stood at 7.38; in the data set on hCMV (setting [7]) it was 27.04. In addition, the “Selectivity index (replication inhibition)” value in the data set on hCMV (4 d PI, Table III) worked out at 16.28; in the data set on hCMV (setting [7]), 2.12. Further, the IC50 was 3.53 µM in the data set with hCMV (setting [3]), 1.6 µM in the data set with hCMV (setting [4]), 0.96 µM in the data set on hCMV (setting [5]) and 12.3 µM in the data set on hCMV (setting [6]). In the data set on ARPE-19 cells, the “cytotoxicity (in words)” value is given as “safe”. Moreover, in data set [1], half-maximal cytotoxicity (CC50 at 6 days) was put at 26.1 µM.

Regarding `O=[N+]([O-])c1ccc(-c2c3nc(c4ccc([nH]4)c(-c4ccc([N+](=O)[O-])cc4)c4ccc([nH]4)c(-c4ccc([N+](=O)[O-])cc4)c4ccc2[nH]4)C=C3)cc1` [TpNO2Cor, 5,10,15-Tris(4-nitrophenyl)corrole, reference compound], the IC50 turned out to be 3.98 µM with hCMV (4 d PI, MOI 10, ARPE-19 cells, read-out: IC50 ARPE (infection inhibition)); 8.34 µM in the data set with hCMV (4 d PI, MOI 10, ARPE-19 cells, read-out: IC50 ARPE (replication inhibition)); 1.79 µM in the data set with hCMV (10 d PI, MOI 2, ARPE-19 cells, read-out: IC50 ARPE (infection inhibition)). Also, the “cytotoxicity (in words)” value in data set [2] was “not cytotoxic”. In the data set with ARPE-19 cells, this compound yielded a CC50 of 25 µM.
